Literature values in PMC7395068, “The evolution of strategies to minimise the risk of human drug-induced liver injury (DILI) in drug discovery and development” (Archives of Toxicology, 2020).
Structures can show the parent of a compound that is named as a salt. Where two headings read alike, the source gives them in different places.

Settings: cited from earlier work
[1] = binary in vivo DILI call given beside the severity category, ref Chen 2016
[2] = human DILI concern category (LTKB DILIrank), ref Chen 2016

Row | Compound | DILI +VE (5-8), DILI -VE (-4) (in vivo) | DILI severity category (in vivo) | DILI +VE (5-8), DILI -VE (-4) [1] | DILI severity category [2]
1 | CC(C)(O)c1ccccc1CC[C@@H](SCC1(CC(=O)O)CC1)c1cccc(/C=C/c2ccc3ccc(Cl)cc3n2)c1 [montelukast] | +VE | vLess-DILI-Concern | – | –
2 | CCOC(=O)Nc1ccc2c(c1)N(C(=O)CCN1CCOCC1)c1ccccc1S2 [moricizine] | – | – | -VE | Ambiguous DILI-concern
3 | COc1c(N2C[C@@H]3CCCN[C@@H]3C2)c(F)cc2c(=O)c(C(=O)O)cn(C3CC3)c12 [moxifloxacin] | +VE | vLess-DILI-Concern | – | –
4 | COc1c(C)c2c(c(O)c1C/C=C(\C)CCC(=O)OCCN1CCOCC1)C(=O)OC2 [mycophenolate mofetil] | – | – | +VE | vLess-DILI-Concern
5 | COc1c(C)c2c(c(O)c1C/C=C(\C)CCC(=O)O)C(=O)OC2 [mycophenolic acid] | – | – | -VE | Ambiguous DILI-concern
6 | CCCCCCC(C)(C)c1cc(O)c2c(c1)OC(C)(C)C1CCC(=O)CC21 (stereo not shown) [nabilone] | – | – | -VE | vNo-DILI-Concern
7 | COc1ccc2cc(CCC(C)=O)ccc2c1 [nabumetone] | – | – | -VE | Ambiguous DILI-concern
8 | CCOc1ccc2ccccc2c1C(=O)N[C@@H]1C(=O)N2[C@@H]1SC(C)(C)[C@@H]2C(=O)O [nafcillin] | – | – | +VE | vLess-DILI-Concern
9 | C=C1CC[C@@]2(O)[C@H]3Cc4ccc(O)c5c4[C@@]2(CCN3CC2CC2)[C@H]1O5 [nalmefene hydrochloride] | – | – | -VE | Ambiguous DILI-concern
10 | CCCCCCCCCC(=O)O[C@H]1CC[C@H]2[C@@H]3CCC4=CC(=O)CC[C@@H]4[C@H]3CC[C@]12C [nandrolone decanoate] | – | – | +VE | vMost-DILI-Concern
11 | CNS(=O)(=O)CCc1ccc2[nH]cc(C3CCN(C)CC3)c2c1 [naratriptan] | – | – | -VE | Ambiguous DILI-concern
12 | COc1nc(N)nc2c1ncn2[C@@H]1O[C@H](CO)[C@@H](O)[C@@H]1O [nelarabine] | – | – | +VE | vLess-DILI-Concern
13 | NC[C@@H]1O[C@H](O[C@H]2[C@@H](O)[C@H](O[C@@H]3[C@@H](O)[C@H](N)C[C@H](N)[C@H]3O[C@H]3O[C@H](CN)[C@@H](O)[C@H](O)[C@H]3N)O[C@@H]2CO)[C@H](N)[C@@H](O)[C@@H]1O [neomycin] | -VE | vNo-DILI-Concern | – | –
14 | CN(C)Cc1ccc(CSCCN/C(=C\[N+](=O)[O-])NCc2ccc3c(c2)OCO3)o1 [niperotidine] | – | – | +VE | vMost-DILI-Concern
15 | CC(=O)Oc1ccccc1C(=O)Nc1ncc([N+](=O)[O-])s1 [nitazoxanide] | – | – | -VE | vNo-DILI-Concern
16 | O=C1CCCC(=O)C1C(=O)c1ccc(C(F)(F)F)cc1[N+](=O)[O-] [nitisinone] | – | – | -VE | Ambiguous DILI-concern
17 | Cc1nc([N+](=O)[O-])cn1-c1ccc([N+](=O)[O-])cc1 [nitrefazole] | – | – | +VE | vMost-DILI-Concern
18 | C#C[C@]1(OC(C)=O)CC[C@H]2[C@@H]3CCC4=CC(=O)CC[C@@H]4[C@H]3CC[C@@]21C [norethindrone acetate] | – | – | -VE | vNo-DILI-Concern
19 | C[C@@H]1[C@H](O)[C@@H](C)/C=C/C=C/CC/C=C/C=C/C=C/C=C/C(O[C@H]2O[C@H](C)[C@@H](O)[C@H](N)[C@@H]2O)CC2O[C@](O)(CC(O)C(O)CCC(O)CC(O)CC(O)CC(=O)O[C@H]1C)CC(O)C2C(=O)O (stereo partly shown) [nystatin] | – | – | -VE | vNo-DILI-Concern
20 | O=C(O)c1cc(/N=N/c2ccc(O)c(C(=O)O)c2)ccc1O [olsalazine] | – | – | +VE | vLess-DILI-Concern
